From US20260347338A1, “PYRIMIDINE/PYRIDINE DERIVATIVES OR SALTS THEREOF AND PHARMACEUTICAL COMPOSITIONS COMPRISING THE SAME” (YUHAN CORPORATION, priority 2023, published 2026)
Where a name gives a salt, the structure may show the parent alone.

What follows are molecules tested against T1, human recombinant HPK1 (Homo sapiens, UniProt Q92918) (assay: Inhibitory activity against human recombinant HPK1 (TR-FRET)). Details: ULight-p70S6K peptide, ATP at Km, room temperature, 1 hour, 0.32 to 1000 nM compound.
T1 construct: purchased BPS Bioscience
T1 sequence (Q92918 whole entry): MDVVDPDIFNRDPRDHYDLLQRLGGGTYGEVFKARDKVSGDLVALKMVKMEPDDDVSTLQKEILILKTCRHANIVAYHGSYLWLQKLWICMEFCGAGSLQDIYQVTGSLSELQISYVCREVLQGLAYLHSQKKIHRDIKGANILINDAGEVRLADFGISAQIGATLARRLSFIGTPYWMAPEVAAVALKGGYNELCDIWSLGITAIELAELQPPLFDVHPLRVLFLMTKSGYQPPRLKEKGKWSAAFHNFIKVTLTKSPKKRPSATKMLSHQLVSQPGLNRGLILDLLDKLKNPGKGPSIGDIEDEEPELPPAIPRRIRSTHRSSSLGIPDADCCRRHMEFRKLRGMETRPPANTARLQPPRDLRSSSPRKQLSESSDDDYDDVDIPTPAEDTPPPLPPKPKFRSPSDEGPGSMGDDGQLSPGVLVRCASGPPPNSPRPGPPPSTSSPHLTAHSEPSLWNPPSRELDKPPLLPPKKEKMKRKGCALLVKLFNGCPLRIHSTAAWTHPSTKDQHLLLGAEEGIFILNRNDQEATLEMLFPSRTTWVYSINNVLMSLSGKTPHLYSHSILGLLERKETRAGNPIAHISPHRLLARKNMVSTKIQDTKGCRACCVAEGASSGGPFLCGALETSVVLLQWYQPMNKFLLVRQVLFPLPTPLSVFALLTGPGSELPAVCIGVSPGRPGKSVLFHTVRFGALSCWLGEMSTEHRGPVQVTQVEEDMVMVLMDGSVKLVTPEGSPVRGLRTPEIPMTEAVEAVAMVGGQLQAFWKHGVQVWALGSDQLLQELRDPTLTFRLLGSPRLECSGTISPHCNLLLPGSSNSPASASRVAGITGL
Assay type: biochemical
Procedure, shortened: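 IC50 classes A–D use 10, 50 and 100 nM cut-offs, derived from TR-FRET signal inhibition relative to DMSO controls. Human recombinant HPK1 phosphorylated ULight-p70S6K peptide at Km ATP for 1 h, room temperature, pH 7.4; test range 0.32–1000 nM final, detection with Eu-labelled antibody after EDTA quench.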

IC50, ≤ 10 nM:
COc1cc(F)cc(F)c1-c1nccc(Nc2cc(N3CCC[C@H](N)C3)c(C#Cc3cnn(C(F)(F)F)c3)cn2)n1 [Example 159, (S)-N-(4-(3-aminopiperidin-1-yl)-5-((1-(trifluoromethyl)-1H-pyrazol-4-yl)ethynyl)pyridin-2-yl)-2-(2,4-difluoro-6-methoxyphenyl)pyrimidin-4-amine hydrochloride]
COc1cccc(F)c1-c1nc(Nc2cc(N3CCC[C@H](O)C3)c(-c3cnn(CC(F)F)c3)cn2)ccc1C(N)=O [Example 160, 6-((5-(1-(2,2-difluoroethyl)-1H-pyrazol-4-yl)-4-((S)-3-hydroxypiperidin-1-yl)pyridin-2-yl)amino)-2-(2-fluoro-6-methoxyphenyl)nicotinamide]
COc1cc(CO)cc(F)c1-c1nccc(Nc2cc(N3CCC[C@H](O)C3)c(-c3cnn(C4CCOCC4)c3)cn2)n1 [Example 161, (S)-1-(2-((2-(2-fluoro-4-(hydroxymethyl)-6-methoxyphenyl)pyrimidin-4-yl)amino)-5-(1-(tetrahydro-2H-pyran-4-yl)-1H-pyrazol-4-yl)pyridin-4-yl)piperidin-3-ol]
COc1cccc(F)c1-c1nccc(Nc2cc(N3CCC[C@H](N)C3)c(-c3cnn(CCN4CCOCC4)c3)cn2)n1 [Example 162, (S)-N-(4-(3-aminopiperidin-1-yl)-5-(1-(2-morpholinoethyl)-1H-pyrazol-4-yl)pyridin-2-yl)-2-(2-fluoro-6-methoxyphenyl)pyrimidin-4-amine hydrochloride]
COc1cccc(F)c1-c1nccc(Nc2cc(N3CCC[C@H](N)C3)c(-c3cnn(CCN4CCCC4)c3)cn2)n1 [Example 163, (S)-N-(4-(3-aminopiperidin-1-yl)-5-(1-(2-(pyrrolidin-1-yl)ethyl)-1H-pyrazol-4-yl)pyridin-2-yl)-2-(2-fluoro-6-methoxyphenyl)pyrimidin-4-amine hydrochloride]
COc1cccc(F)c1-c1nccc(Nc2cc(N3CCC[C@H](N)C3)c(C#Cc3cnn(C(F)F)c3)cn2)n1 [Example 164, (S)-N-(4-(3-aminopiperidin-1-yl)-5-((1-(difluoromethyl)-1H-pyrazol-4-yl)ethynyl)pyridin-2-yl)-2-(2-fluoro-6-methoxyphenyl)pyrimidin-4-amine hydrochloride]
COc1cccc(F)c1-c1nccc(Nc2cc(N3CCC[C@H](N)C3)c(C#Cc3cnn(CC(F)F)c3)cn2)n1 [Example 165, (S)-N-(4-(3-aminopiperidin-1-yl)-5-((1-(2,2-difluoroethyl)-1H-pyrazol-4-yl)ethynyl)pyridin-2-yl)-2-(2-fluoro-6-methoxyphenyl)pyrimidin-4-amine hydrochloride]
COc1cccc(F)c1-c1nccc(Nc2cc(N3CCC[C@H](N)C3)c(C#Cc3cnn(CC(F)(F)F)c3)cn2)n1 [Example 166, (S)-N-(4-(3-aminopiperidin-1-yl)-5-((1-(2,2,2-trifluoroethyl)-1H-pyrazol-4-yl)ethynyl)pyridin-2-yl)-2-(2-fluoro-6-methoxyphenyl)pyrimidin-4-amine hydrochloride]
COc1cccc(F)c1-c1nccc(Nc2cc(N3CCC[C@H](N)C3)c(-c3cnn(CCC(N)=O)c3)cn2)n1 [Example 167, (S)-3-(4-(4-(3-aminopiperidin-1-yl)-6-((2-(2-fluoro-6-methoxyphenyl)pyrimidin-4-yl)amino)pyridin-3-yl)-1H-pyrazol-1-yl)propanamide hydrochloride]
COc1cccc(F)c1-c1nccc(Nc2cc(N3CCC[C@H](N)C3)c(-c3cnn(C4CNC4)c3)cn2)n1 [Example 168, (S)-N-(4-(3-aminopiperidin-1-yl)-5-(1-(azetidin-3-yl)-1H-pyrazol-4-yl)pyridin-2-yl)-2-(2-fluoro-6-methoxyphenyl)pyrimidin-4-amine hydrochloride]
COc1cccc(F)c1-c1nc(Nc2cc(N3CCC[C@H](N)C3)c(-c3cnn(CC(F)F)c3)cn2)ccc1N [Example 169, N^2-(4-((S)-3-aminopiperidin-1-yl)-5-(1-(2,2-difluoroethyl)-1H-pyrazol-4-yl)pyridin-2-yl)-6-(2-fluoro-6-methoxyphenyl)pyridin-2,5-diamine hydrochloride]
COc1cccc(F)c1-c1nc(Nc2cc(N3CCC[C@H](N)C3)c(-c3cnn(CC(F)(F)F)c3)cn2)ccc1N [Example 170, N^2-(4-((S)-3-aminopiperidin-1-yl)-5-(1-(2,2,2-trifluoroethyl)-1H-pyrazol-4-yl)pyridin-2-yl)-6-(2-fluoro-6-methoxyphenyl)pyridin-2,5-diamine hydrochloride]
COc1cc(F)cc(F)c1-c1nccc(Nc2cc(N3CCC[C@H](O)C3)c(-c3cnn(C(F)(F)F)c3)cn2)n1 [Example 171, (S)-1-(2-((2-(2,4-difluoro-6-methoxyphenyl)pyrimidin-4-yl)amino)-5-(1-(trifluoromethyl)-1H-pyrazol-4-yl)pyridin-4-yl)piperidin-3-ol]
COc1cc(F)cc(F)c1-c1nccc(Nc2cc(N3CCC[C@H](O)C3)c(-c3cnn(CC(F)F)c3)cn2)n1 [Example 172, (S)-1-(2-((2-(2,4-difluoro-6-methoxyphenyl)pyrimidin-4-yl)amino)-5-(1-(2,2-difluoroethyl)-1H-pyrazol-4-yl)pyridin-4-yl)piperidin-3-ol]
COc1cccc(F)c1-c1nc(Nc2cc(N3CCC[C@H](N)C3)c(-c3cnn(C(F)(F)F)c3)cn2)ccc1N [Example 173, N^2-(4-((S)-3-aminopiperidin-1-yl)-5-(1-(trifluoromethyl)-1H-pyrazol-4-yl)pyridin-2-yl)-6-(2-fluoro-6-methoxyphenyl)pyridin-2,5-diamine hydrochloride]
COc1cc(F)cc(F)c1-c1nccc(Nc2cc(N3CCC[C@H](O)C3)c(-c3cnn(CC(F)(F)F)c3)cn2)n1 [Example 174, (S)-1-(2-((2-(2,4-difluoro-6-methoxyphenyl)pyrimidin-4-yl)amino)-5-(1-(2,2,2-trifluoroethyl)-1H-pyrazol-4-yl)pyridin-4-yl)piperidin-3-ol]
COc1cccc(F)c1-c1nccc(Nc2cc(N3CCC[C@H](N)C3)c(-c3cnn(CC(F)(F)F)c3)nn2)n1 [Example 175, (S)-5-(3-aminopiperidin-1-yl)-N-(2-(2-fluoro-6-methoxyphenyl)pyrimidin-4-yl)-6-(1-(2,2,2-trifluoroethyl)-1H-pyrazol-4-yl)pyridazin-3-amine hydrochloride]
COc1cccc(F)c1-c1nccc(Nc2cc(N3CCC[C@H](N)C3)c(-c3ccc(C(=O)N4CCN(C)CC4)cc3)cn2)n1 [Example 176, (S)-(4-(4-(3-aminopiperidin-1-yl)-6-((2-(2-fluoro-6-methoxyphenyl)pyrimidin-4-yl)amino)pyridin-3-yl)phenyl)(4-methylpiperazin-1-yl)methanone hydrochloride]
COc1cccc(F)c1-c1nc(Nc2cc(N3CCC[C@H](O)C3)c(-c3cnn(C4CCOCC4)c3)cn2)ccc1N [Example 177, (3S)-1-(2-((5-amino-6-(2-fluoro-6-methoxyphenyl)pyridin-2-yl)amino)-5-(1-(tetrahydro-2H-pyran-4-yl)-1H-pyrazol-4-yl)pyridin-4-yl)piperidin-3-ol]
COc1cccc(F)c1-c1nc(Nc2cc(N3CCC[C@H](O)C3)c(-c3cnn(C(F)(F)F)c3)cn2)ccc1N [Example 178, (3S)-1-(2-((5-amino-6-(2-fluoro-6-methoxyphenyl)pyridin-2-yl)amino)-5-(1-(trifluoromethyl)-1H-pyrazol-4-yl)pyridin-4-yl)piperidin-3-ol]
COc1cccc(F)c1-c1nc(Nc2cc(N3CCC[C@H](O)C3)c(-c3cnn(CC(F)F)c3)cn2)ccc1N [Example 179, (3S)-1-(2-((5-amino-6-(2-fluoro-6-methoxyphenyl)pyridin-2-yl)amino)-5-(1-(2,2-difluoroethyl)-1H-pyrazol-4-yl)pyridin-4-yl)piperidin-3-ol]
COc1cccc(F)c1-c1nc(Nc2cc(N3CCC[C@H](O)C3)c(-c3cnn(CC(F)(F)F)c3)cn2)ccc1N [Example 180, (3S)-1-(2-((5-amino-6-(2-fluoro-6-methoxyphenyl)pyridin-2-yl)amino)-5-(1-(2,2,2-trifluoroethyl)-1H-pyrazol-4-yl)pyridin-4-yl)piperidin-3-ol]
COc1cccc(F)c1-c1nc(Nc2cc(N3CCC[C@H](N)C3)c(-c3cnn(C4CCOCC4)c3)cn2)ccc1N [Example 181, N^2-(4-((S)-3-aminopiperidin-1-yl)-5-(1-(tetrahydro-2H-pyran-4-yl)-1H-pyrazol-4-yl)pyridin-2-yl)-6-(2-fluoro-6-methoxyphenyl)pyridin-2,5-diamine hydrochloride]
COc1cc(F)cc(F)c1-c1nccc(Nc2cc(N3CCC[C@H](O)C3)c(-c3cnn(C(F)F)c3)cn2)n1 [Example 182, (S)-1-(2-((2-(2,4-difluoro-6-methoxyphenyl)pyrimidin-4-yl)amino)-5-(1-(difluoromethyl)-1H-pyrazol-4-yl)pyridin-4-yl)piperidin-3-ol]
COc1cc(F)cc(F)c1-c1nc(Nc2cc(N3CCC[C@H](O)C3)c(-c3cnn(C(F)F)c3)cn2)ccc1[N+](=O)[O-] [Example 183, (3S)-1-(2-((6-(2,4-difluoro-6-methoxyphenyl)-5-nitropyridin-2-yl)amino)-5-(1-(difluoromethyl)-1H-pyrazol-4-yl)pyridin-4-yl)piperidin-3-ol]
